Source: patent US20220289758A1, “7-OXA-3,4-DIAZABICYCLO [4.1.0] HEPT-4-EN-2-ONE COMPOUND AND HERBICIDE” (Nippon Soda Co., Ltd., priority 2019, published 2022)
Blank lines part the entries; values can stand above or below the compound they belong to.

Assays:
Abutilon theophrasti = assay: Foliar spraying treatment, weed killing rate; format: in vivo; settings: 504 h, read-out: herbicidal activity; for pest or weed control at 250 g/ha: foliar spray, 250 g per hectare, after 3 weeks (Table 5); for pest or weed control at 1000 g/ha: foliar spray, 1,000 g per hectare, after 3 weeks (Table 4)
Description: (§1) (1) Preparation of Test Emulsion
(§2) POA allylphenyl ether (4.1 parts by weight), POE-POP glycol (1 part by weight), POE sorbitan laurate (0.8 parts by weight), glycerin (2.6 parts by weight), dimethylformamide (65.9 parts by weight), N-methylpyrrolidone (5.1 parts by weight), cyclohexanone (15.4 parts by weight), and aromatic hydrocarbons (5.1 parts by weight) were mixed and dissolved to prepare an emulsion. The compound of the present invention (4 mg) was dissolved in this emulsion (100 μL) to prepare a test emulsion. POA means “polyoxyalkylene”, POE means “polyoxyethylene”, and POP means “polyoxypropylene”.
(§3) (2) Foliar Spraying Treatment
(§4) A 150 cm^2 pot was filled with soil, and seeds of Avena sativa, Matricaria chamomilla, Setaria faberi, Digitaria ciliaris, Abutilon theophrasti and Amaranthus retroflexus were sown into the surface layer which was covered lightly with soil. Thereafter, they were grown in a greenhouse. When each plant grew to a plant height of 2 to 4 cm, the above test emulsion was diluted so that the amount of the active ingredient became a predetermined amount, and sprayed on the foliage with a small sprayer at a spray water volume of 250 L per hectare.
(§5) After 3 weeks, above ground weights of weeds in the untreated and treated areas were measured for each weed, and the weed killing rate was calculated by the following calculation formula.
(§6) (4) Calculation Formula for Weed Killing Rate
(§7) Weed killing rate (%)=[(above ground weight of weeds in untreated area)−(above ground weight of weeds in treated area)/(above ground weight of weeds in untreated area)]×100

Amaranthus retroflexus = assay: Foliar spraying treatment, weed killing rate; format: in vivo; settings: 504 h, read-out: herbicidal activity; for pest or weed control at 250 g/ha: foliar spray, 250 g per hectare, after 3 weeks (Table 15); for pest or weed control at 1000 g/ha: foliar spray, 1,000 g per hectare, after 3 weeks (Table 14)
Description: as §1, §2, §3, §4, §5, §6, §7

Digitaria ciliaris = assay: Foliar spraying treatment, weed killing rate; format: in vivo; settings: 504 h, read-out: herbicidal activity; for pest or weed control at 250 g/ha: foliar spray, 250 g per hectare, after 3 weeks (Table 13); for pest or weed control at 1000 g/ha: foliar spray, 1,000 g per hectare, after 3 weeks (Table 12)
Description: as §1, §2, §3, §4, §5, §6, §7

Matricaria chamomilla = assay: Foliar spraying treatment, weed killing rate; format: in vivo; settings: 504 h, read-out: herbicidal activity; for pest or weed control at 250 g/ha: foliar spray, 250 g per hectare, after 3 weeks (Table 7); for pest or weed control at 1000 g/ha: foliar spray, 1,000 g per hectare, after 3 weeks (Table 6)
Description: as §1, §2, §3, §4, §5, §6, §7

Setaria faberi = assay: Foliar spraying treatment, weed killing rate; format: in vivo; settings: 504 h, read-out: herbicidal activity; for pest or weed control at 250 g/ha: foliar spray, 250 g per hectare, after 3 weeks (Table 11); for pest or weed control at 1000 g/ha: foliar spray, 1,000 g per hectare, after 3 weeks (Table 10)
Description: as §1, §2, §3, §4, §5, §6, §7

Structure (SMILES): COC12OC1(c1ccc(C(F)(F)F)c3c1CCCS3(=O)=O)C=NN(C)C2=O (centres unmarked) [Compound B-1, 1-methoxy-3-methyl-6-(1,1-dioxido-8-(trifluoromethyl)thiochroman-5-yl)-7-oxa-3,4-diazabicyclo [4.1.0] hept-4-en-2-one]
pest or weed control at 250 g/ha (Abutilon theophrasti): ≥ 80%
pest or weed control at 1000 g/ha (Abutilon theophrasti): ≥ 80%
pest or weed control at 250 g/ha (Amaranthus retroflexus): ≥ 80%
pest or weed control at 1000 g/ha (Amaranthus retroflexus): ≥ 80%
pest or weed control at 250 g/ha (Digitaria ciliaris): ≥ 80%
pest or weed control at 1000 g/ha (Digitaria ciliaris): ≥ 80%
pest or weed control at 250 g/ha (Matricaria chamomilla): ≥ 80%
pest or weed control at 1000 g/ha (Matricaria chamomilla): ≥ 80%
pest or weed control at 250 g/ha (Setaria faberi): ≥ 80%
pest or weed control at 1000 g/ha (Setaria faberi): ≥ 80%

Structure (SMILES): COC12OC1(c1ccc(C(F)(F)F)c3c1CCCCS3(=O)=O)C=NN(C)C2=O (centres unmarked) [Compound B-9]
pest or weed control at 250 g/ha (Abutilon theophrasti): ≥ 80%
pest or weed control at 1000 g/ha (Abutilon theophrasti): ≥ 80%
pest or weed control at 250 g/ha (Amaranthus retroflexus): ≥ 80%
pest or weed control at 1000 g/ha (Amaranthus retroflexus): ≥ 80%
pest or weed control at 250 g/ha (Digitaria ciliaris): ≥ 80%
pest or weed control at 1000 g/ha (Digitaria ciliaris): ≥ 80%
pest or weed control at 250 g/ha (Matricaria chamomilla): ≥ 80%
pest or weed control at 1000 g/ha (Matricaria chamomilla): ≥ 80%
pest or weed control at 250 g/ha (Setaria faberi): ≥ 80%
pest or weed control at 1000 g/ha (Setaria faberi): ≥ 80%

Structure (SMILES): COC12OC1(c1ccc(C(F)(F)F)c3c1OCCS3(=O)=O)C=NN(C)C2=O (centres unmarked) [Compound B-13]
pest or weed control at 250 g/ha (Abutilon theophrasti): ≥ 80%
pest or weed control at 1000 g/ha (Abutilon theophrasti): ≥ 80%
pest or weed control at 250 g/ha (Amaranthus retroflexus): ≥ 80%
pest or weed control at 1000 g/ha (Amaranthus retroflexus): ≥ 80%
pest or weed control at 1000 g/ha (Digitaria ciliaris): ≥ 80%
pest or weed control at 250 g/ha (Matricaria chamomilla): ≥ 80%
pest or weed control at 1000 g/ha (Matricaria chamomilla): ≥ 80%

Structure (SMILES): CN1N=CC2(c3ccc(C(F)(F)F)c4c3CCCS4(=O)=O)OC2(OCCON2C(=O)c3ccccc3C2=O)C1=O (centres unmarked) [Compound B-2]
pest or weed control at 250 g/ha (Abutilon theophrasti): ≥ 80%
pest or weed control at 250 g/ha (Amaranthus retroflexus): ≥ 80%
pest or weed control at 250 g/ha (Digitaria ciliaris): ≥ 80%
pest or weed control at 250 g/ha (Matricaria chamomilla): ≥ 80%
pest or weed control at 250 g/ha (Setaria faberi): ≥ 80%

Structure (SMILES): COC12OC1(c1cc(C)c3c(c1C)C1(CCS3(=O)=O)OCCO1)C=NN(C)C2=O (centres unmarked) [Compound B-11]
pest or weed control at 250 g/ha (Abutilon theophrasti): ≥ 80%
pest or weed control at 1000 g/ha (Abutilon theophrasti): ≥ 80%
pest or weed control at 250 g/ha (Amaranthus retroflexus): ≥ 80%
pest or weed control at 1000 g/ha (Amaranthus retroflexus): ≥ 80%
pest or weed control at 250 g/ha (Digitaria ciliaris): ≥ 80%
pest or weed control at 1000 g/ha (Digitaria ciliaris): ≥ 80%
pest or weed control at 1000 g/ha (Matricaria chamomilla): ≥ 80%
pest or weed control at 1000 g/ha (Setaria faberi): ≥ 80%

Structure (SMILES): COC12OC1(c1ccc(C(F)(F)F)cc1S(C)(=O)=O)C=NN(C)C2=O (centres unmarked) [Compound A-1, 1-methoxy-3-methyl-6-(2-(methylsulfonyl)-4-(trifluoromethyl)phenyl)-7-oxa-3,4-diazabicyclo [4.1.0] hept-4-en-2-one]
pest or weed control at 250 g/ha (Abutilon theophrasti): ≥ 80%
pest or weed control at 1000 g/ha (Abutilon theophrasti): ≥ 80%
pest or weed control at 250 g/ha (Amaranthus retroflexus): ≥ 80%
pest or weed control at 1000 g/ha (Amaranthus retroflexus): ≥ 80%
pest or weed control at 250 g/ha (Digitaria ciliaris): ≥ 80%
pest or weed control at 1000 g/ha (Digitaria ciliaris): ≥ 80%
pest or weed control at 250 g/ha (Matricaria chamomilla): ≥ 80%
pest or weed control at 1000 g/ha (Matricaria chamomilla): ≥ 80%
pest or weed control at 250 g/ha (Setaria faberi): ≥ 80%
pest or weed control at 1000 g/ha (Setaria faberi): ≥ 80%
melting point: 128 °C

Structure (SMILES): COC12OC1(c1ccc(C(F)(F)F)c(S(C)(=O)=Nc3ccc(Cl)cc3)c1C)C=NN(C)C2=O (centres unmarked) [Compound B-15]
pest or weed control at 250 g/ha (Abutilon theophrasti): ≥ 80%
pest or weed control at 250 g/ha (Amaranthus retroflexus): ≥ 80%
pest or weed control at 250 g/ha (Digitaria ciliaris): ≥ 80%
pest or weed control at 250 g/ha (Matricaria chamomilla): ≥ 80%
pest or weed control at 250 g/ha (Setaria faberi): ≥ 80%

Structure (SMILES): COC12OC1(c1ccc3c(c1C)S(=O)(=O)CCC3(C)C)C=NN(C)C2=O (centres unmarked) [Compound B-12]
pest or weed control at 1000 g/ha (Abutilon theophrasti): ≥ 80%
pest or weed control at 1000 g/ha (Amaranthus retroflexus): ≥ 80%
pest or weed control at 1000 g/ha (Digitaria ciliaris): ≥ 80%
pest or weed control at 1000 g/ha (Matricaria chamomilla): ≥ 80%

More lines, main results first:

melting point: 65 to 66 °C
Structure (SMILES): COC12OC1(c1ccc(C(F)(F)F)cc1S(C)(=O)=O)C=NN(C1CCCCO1)C2=O (centres unmarked) [Compound B-14]
pest or weed control at 250 g/ha (Amaranthus retroflexus): ≥ 80%
pest or weed control at 1000 g/ha (Amaranthus retroflexus): ≥ 80%
pest or weed control at 1000 g/ha (Digitaria ciliaris): ≥ 80%
pest or weed control at 1000 g/ha (Setaria faberi): ≥ 80%

melting point: 158 to 161 °C
Structure (SMILES): COC12OC1(c1ccc(C(F)(F)F)c(N=S3(=O)CCCCC3)c1Cl)C=NN(C)C2=O (centres unmarked) [Compound B-4]
pest or weed control at 250 g/ha (Setaria faberi): ≥ 80%

melting point: 112 to 117 °C
Structure (SMILES): CN1N=CC2(c3ccc(C(F)(F)F)c4c3CCCS4(=O)=O)OC2(OCc2ccn(CC(F)(F)F)n2)C1=O (centres unmarked) [Compound B-3]
pest or weed control at 250 g/ha (Abutilon theophrasti): ≥ 80%
pest or weed control at 250 g/ha (Amaranthus retroflexus): ≥ 80%
pest or weed control at 250 g/ha (Setaria faberi): ≥ 80%

melting point: 150 to 153 °C
Structure (SMILES): COC12OC1(c1cc3c(cc1S(C)(=O)=O)CCC3)C=NN(C)C2=O (centres unmarked) [Compound B-6]
pest or weed control at 250 g/ha (Abutilon theophrasti): ≥ 80%
pest or weed control at 1000 g/ha (Abutilon theophrasti): ≥ 80%
pest or weed control at 250 g/ha (Amaranthus retroflexus): ≥ 80%
pest or weed control at 1000 g/ha (Amaranthus retroflexus): ≥ 80%
pest or weed control at 250 g/ha (Digitaria ciliaris): ≥ 80%
pest or weed control at 1000 g/ha (Digitaria ciliaris): ≥ 80%
pest or weed control at 250 g/ha (Matricaria chamomilla): ≥ 80%
pest or weed control at 1000 g/ha (Matricaria chamomilla): ≥ 80%

melting point: 153 to 155 °C
Structure (SMILES): COC12OC1(c1ccc(C(F)(F)F)c3c1CCCO3)C=NN(C)C2=O (centres unmarked) [Compound B-8]
pest or weed control at 1000 g/ha (Abutilon theophrasti): ≥ 80%
pest or weed control at 250 g/ha (Amaranthus retroflexus): ≥ 80%
pest or weed control at 1000 g/ha (Amaranthus retroflexus): ≥ 80%

melting point: 179 to 181 °C
Structure (SMILES): COC12OC1(c1cccc3c1CCCS3(=O)=O)C=NN(C)C2=O (centres unmarked) [Compound B-7]
pest or weed control at 1000 g/ha (Abutilon theophrasti): ≥ 80%
pest or weed control at 1000 g/ha (Amaranthus retroflexus): ≥ 80%
pest or weed control at 1000 g/ha (Digitaria ciliaris): ≥ 80%
pest or weed control at 250 g/ha (Matricaria chamomilla): ≥ 80%
pest or weed control at 1000 g/ha (Matricaria chamomilla): ≥ 80%
pest or weed control at 1000 g/ha (Setaria faberi): ≥ 80%

melting point: 205 to 206 °C
Structure (SMILES): COC12OC1(c1cc(F)c(C(F)(F)F)c3c1CCCS3(=O)=O)C=NN(C)C2=O (centres unmarked) [Compound B-16]
pest or weed control at 1000 g/ha (Abutilon theophrasti): ≥ 80%
pest or weed control at 1000 g/ha (Amaranthus retroflexus): ≥ 80%
pest or weed control at 1000 g/ha (Digitaria ciliaris): ≥ 80%
pest or weed control at 1000 g/ha (Matricaria chamomilla): ≥ 80%
pest or weed control at 1000 g/ha (Setaria faberi): ≥ 80%

melting point: 172 to 177 °C
Structure (SMILES): COC12OC1(c1ccc(C(F)(F)F)c3c1CCS3(=O)=O)C=NN(C)C2=O (centres unmarked) [Compound B-10]
pest or weed control at 250 g/ha (Abutilon theophrasti): ≥ 80%
pest or weed control at 1000 g/ha (Abutilon theophrasti): ≥ 80%
pest or weed control at 250 g/ha (Amaranthus retroflexus): ≥ 80%
pest or weed control at 1000 g/ha (Amaranthus retroflexus): ≥ 80%
pest or weed control at 250 g/ha (Matricaria chamomilla): ≥ 80%
pest or weed control at 1000 g/ha (Matricaria chamomilla): ≥ 80%

melting point: 132 to 134 °C
Structure (SMILES): COC12OC1(c1ccc(C(F)(F)F)c3c1S(=O)(=O)CCC3)C=NN(C)C2=O (centres unmarked) [Compound B-5]
pest or weed control at 250 g/ha (Abutilon theophrasti): ≥ 80%
pest or weed control at 250 g/ha (Amaranthus retroflexus): ≥ 80%
pest or weed control at 250 g/ha (Digitaria ciliaris): ≥ 80%
pest or weed control at 250 g/ha (Matricaria chamomilla): ≥ 80%
pest or weed control at 250 g/ha (Setaria faberi): ≥ 80%
